Read-outs that look alike come from different tables or passages of the source. Residues, ends and D or L forms follow the SMILES beside them. No end group written: not given here. *: point of attachment. OBn = c1ccc(CO*)cc1; X1 = CCCCCO*; OPr = CCCO*; X2 = CCCCO*
How the values were obtained:
[1] = biological target: T1, GRP receptor (Mus musculus, UniProt P21729); assay: Binding inhibition of radiolabelled GRP (Procedure A); conditions: for EC50: [Antagonist] reducing specific binding of 7 nM [3H-Phe15] GRP 15-27 to 50%, Swiss 3T3 cell monolayers
T1 construct: Swiss 3T3 fibroblasts were used in these tests as the source of GRP receptor; endogenous in cells; host or cells: Swiss 3T3 fibroblasts (from Dr. K. Brown, Institute of Animal Physiology, Cambridge, U.K.)
T1 sequence (P21729 whole entry): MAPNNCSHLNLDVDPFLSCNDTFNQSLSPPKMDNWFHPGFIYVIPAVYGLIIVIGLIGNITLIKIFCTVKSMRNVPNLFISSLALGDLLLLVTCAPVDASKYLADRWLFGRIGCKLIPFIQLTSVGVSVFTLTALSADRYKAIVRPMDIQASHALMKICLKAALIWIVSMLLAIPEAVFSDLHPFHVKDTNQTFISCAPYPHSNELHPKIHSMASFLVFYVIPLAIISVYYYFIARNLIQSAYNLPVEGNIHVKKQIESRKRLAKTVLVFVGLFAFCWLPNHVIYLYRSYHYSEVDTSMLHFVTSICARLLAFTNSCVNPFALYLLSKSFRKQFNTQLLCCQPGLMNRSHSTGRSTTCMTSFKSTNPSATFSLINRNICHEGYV
Experimental: Swiss 3T3 cells, obtained from Dr. K. Brown (Institute of Animal Physiology, Cambridge, U.K.). The cells were grown to confluency in Costar 12-well plates containing DMEM (Gibco) supplemented with 10% fetal bovine serum, 2 mM glutamine and 1% penicillin-streptomycin. The cells were washed twice with binding buffer [1:1 DMEM:Waymouths MB752/1 medium, plus 1 mg/ml BSA (Fraction V, Calbiochem)]. The antagonist was dissolved in 10 mM HCl, and diluted to the appropriate concentration in binding buffer. The antagonist was then added to the cells, followed by radiolabelled GRP at a final concentration of 7 nM. After 30 minutes incubation at 37° C., the supernatant liquid was removed and the cell monolayer rinsed four times with washing buffer (150 mM NaCl, 20 mM Na2 HPO4, 5 mM KCl, 1.8 mM KH2 PO4, 1 mg/ml BSA). The cells were then lysed with 1 ml/well of lysis buffer (1% Triton X-100, 0.1% BSA), and the solution was aspirated into scintillation vials for counting. Each data point was collected in triplicate.
Binding Inhibition: [Antagonist] which reduces the specific binding of 7 nM [^3 H-Phe^15 ] GRP 15-27 to 50% of the level observed in the absence of antagonist. Assay performed in Swiss 3T3 cell monolayers.

[2] = test system: Swiss 3T3 cells; assay type: cell-based; conditions: for EC50: 3 h
Experimental: Swiss 3T3 cells were grown in monolayer culture in 24-well plates (Costar) in serum-free DMEM for 48 hours, at which time the GRP or a GRP homologue, the antagonist and 23 nM ^3 H-thymidine were added. […] The cells were harvested with a Skatron filter apparatus, and the filters counted in a scintillation counter.
Mitogenic Inhibition: [Antagonist] which reduces the uptake of ^3 H-thymidine caused by 7 nM [Nle^27 ] GRP 15-27 to 50% of the level observed in the absence of antagonist. […] GRP 1-27 as the mitogen. Assay performed on Swiss 3T3 monolayers.

[3] = test system: Swiss 3T3 cells; assay type: cell-based; conditions: for EC50: 3 h; remark: listed apart in the source
Experimental: Swiss 3T3 cells were grown in monolayer culture in 24-well plates (Costar) in serum-free DMEM for 48 hours, at which time the peptide being tested and 23 nM ^3 H-thymidine were added. […] The cells were harvested with a Skatron filter apparatus, and the filters counted in a scintillation counter. Mitogenic Stimulation: [Agonist] which stimulates uptake of ^3 H-thymidine to 50% of the maximal level caused by [Nle^27 ] GRP 15-27. Assay performed on Swiss 3T3 monolayers.

[4] = test system: H345 SCLC cells; assay: Stimulation of Ca2+ release in SCLC (Procedure D); assay type: cell-based; conditions: 100 nM GRP, read-out: [Ca2+]i in SCLC IC50
Experimental: Following the procedure of Heikkila et al., J. Biol. Chem. 262 16456 (1987), approximately 1×10^8 H345 SCLC cells, maintained in RPMI-1640 (Ro) medium supplemented with selenium, insulin, and transferrin, were harvested by settling and washing with Ro. They were then resuspended in 2 ml Ro, to which 1.2 nmol Fura-2/AM per 10^6 cells was added. After a 15 minute incubation at 37° C., the cells were diluted to 10 ml with Ro and incubated for 1 hour at 37° C. The cells were then centrifuged and resuspended in HEPES-saline (140 mM NaCl, 5 mM KCl, 5 mM glucose, 1 mM CaCl2, 1 mM MgCl2, 20 mM HEPES, pH 7.4) at a density of 2.5-5×10^6 cells/ml. The cells were kept on ice for up to 2 hours before being used. Ca^2+ measurements were performed at 37° C. in an Aminco SPF-500 fluorimeter. The excitation wavelength was 340 nm, the emission wavelength 510 nm. Two ml of cell suspension was periodically resuspended in a 3 ml plastic cuvette. They were equilibrated at 37° C. for at least 5 minutes before data was collected. After a stable baseline was established, a mixture of the compound of interest an 100 nM GRP was added, and data was collected for approximately 5 minutes. At that time, a challenge dose of GRP was added, and data was collected for an additional 5 minutes. […] Baseline fluorescence was measured after the subsequent addition of 40 μl 2M Tris (pH 9.5) and 64 μl 0.2M EGTA.

[5] = assays of example 2 repeated, unit inferred

CCCCOC(=O)[C@H](CC(C)C)NC(=O)[C@H](Cc1c[nH]cn1)NC(=O)CNC(=O)[C@@H](NC(=O)[C@H](C)NC(=O)[C@H](Cc1c[nH]c2ccccc12)NC(=O)[C@H](Cc1c[nH]cn1)NC(C)=O)C(C)C [AcHisTrpAlaValGlyHisLeu--O(CH2)3 CH3] (Ac-HWAVGHL-X2)
IC50 [1, 5]: 0.0068 µM

CCCCCOC(=O)[C@H](CC(C)C)NC(=O)[C@H](Cc1c[nH]cn1)NC(=O)CNC(=O)[C@@H](NC(=O)[C@H](C)NC(=O)[C@H](Cc1c[nH]c2ccccc12)NC(=O)[C@H](Cc1c[nH]cn1)NC(C)=O)C(C)C [AcHisTrpAlaValGlyHisLeu--O(CH2)4 CH3] (Ac-HWAVGHL-X1)
IC50 [1, 5]: 0.0124 µM

CCCOC(=O)[C@H](CC(C)C)NC(=O)[C@H](Cc1c[nH]cn1)NC(=O)CNC(=O)[C@@H](NC(=O)[C@H](C)NC(=O)[C@H](Cc1c[nH]c2ccccc12)NC(=O)[C@H](Cc1c[nH]cn1)NC(C)=O)C(C)C [AcHisTrpAlaValGlyHisLeu--O(CH2)2 CH3] (Ac-HWAVGHL-OPr)
IC50 [1, 5]: 0.0035 µM

COC(=O)[C@H](CC(C)C)NC(=O)[C@H](Cc1c[nH]cn1)NC(=O)CNC(=O)[C@@H](NC(=O)[C@H](C)NC(=O)[C@H](Cc1c[nH]c2ccccc12)NC(=O)[C@H](Cc1c[nH]cn1)NC(C)=O)C(C)C [AcHisTrpAlaValGlyHisLeu--OCH3] (Ac-HWAVGHL-OMe)
IC50 [1, 5]: 0.0077 µM

CC(=O)N[C@@H](Cc1c[nH]cn1)C(=O)N[C@@H](Cc1c[nH]c2ccccc12)C(=O)N[C@@H](C)C(=O)N[C@H](C(=O)NCC(=O)N[C@@H](Cc1c[nH]cn1)C(=O)N[C@@H](CC(C)C)C(=O)OCc1ccccc1)C(C)C [AcHisTrpAlaValGlyHisLeu--OCH2 C6 H5] (Ac-HWAVGHL-OBn)
IC50 [1, 5]: 0.0054 µM

CCOC(=O)[C@H](CC(C)C)NC(=O)[C@H](Cc1c[nH]cn1)NC(=O)CNC(=O)[C@@H](NC(=O)[C@H](C)NC(=O)[C@H](Cc1c[nH]c2ccccc12)NC(=O)[C@H](Cc1c[nH]cn1)NC(C)=O)C(C)C [N-acetyl His Trp Ala Val Gly His Leu-OCH2 CH3] (Ac-HWAVGHL-OEt)
IC50 ([1]; average of 6 experiments): 0.0039 µM
IC50 ([2]; average of 2 experiments, read-out: Mitogenic Inhibition IC50): 0.015 µM
Mitogenic Stimulation ([3]; at concentrations up to 30 μM): none
IC50 [4]: 0.4 µM

HWAVGHL-NH2 [His--Trp--Ala--Val--Gly--His--LeuNH2]
EC50 [1]: 20 µM
EC50 [2]: 50 µM
EC50 [3]: > 100 µM

Ac-HWAVGHL-NH2 [Ac--His--Trp--Ala--Val--Gly--His--LeuNH2]
EC50 [1]: 2 µM
EC50 [2]: 3 µM
EC50 [3]: > 100 µM

From US5047502A, “Gastrin releasing peptide antagonist” (Merck and Co., Inc., priority 1989, dated 1991)
